Literature values in patent EP4578441A1, “TREATMENT OF LOCALIZED PAIN” (PlantTec Medical GmbH, priority 2023, dated 2025).
Where two headings read alike, the source gives them in different places.

How the values were obtained:
[1] = test system: volunteers; conditions: i.v. infusions
[2] = free base

Compound	safety of local administration (dose of 400 mg)	safety of local administration (dose of 800 mg)	CNS toxicity threshold, free plasma ropivacaine concentration ([1]; free plasma concentration) [µg/mL]	CNS toxicity threshold, free plasma ropivacaine concentration, maximum ([1]; maximum) [µg/mL]	CNS toxicity threshold, free plasma ropivacaine concentration, minimum ([1]; minimum) [µg/mL]	water solubility [2]
CCCN1CCCC[C@H]1C(=O)Nc1c(C)cccc1C [ropivacaine, (S)-1-Propyl-2',6'-dimethyl-2-piperidylcarboxyanilide]	safe	safe	0.60	0.85	0.34	–
CCCN1CCCC[C@H]1C(=O)Nc1c(C)cccc1C [ropivacaine free base, (S)-1-Propyl-2',6'-dimethyl-2-piperidylcarboxyanilide]	–	–	–	–	–	weak
